Assay: xn = mol fraction of the nth substance listed
Conditions: Liquid, Vibrating tube method

Cc1ccccc1 [toluene] + CCO
mass density [kg/m3]
Conditions | 100 kPa | 5000 kPa | 10000 kPa | 15000 kPa | 20000 kPa | 25000 kPa | 30000 kPa | 35000 kPa | 40000 kPa | 45000 kPa
283.15 K, x2 = 0 | 876.1 | 879.5 | 882.9 | 886.1 | 889.3 | 892.4 | 895.3 | 898.2 | 901 | 903.7
283.15 K, x2 = 0.125 | 870.4 | 873.9 | 877.4 | 880.7 | 883.8 | 886.9 | 889.9 | 892.8 | 895.6 | 898.4
283.15 K, x2 = 0.25 | 864.3 | 867.9 | 871.3 | 874.6 | 877.9 | 881 | 884 | 886.9 | 889.7 | 892.5
283.15 K, x2 = 0.375 | 857.5 | 861.1 | 864.6 | 867.9 | 871.2 | 874.3 | 877.3 | 880.3 | 883.1 | 885.9
283.15 K, x2 = 0.5 | 849.5 | 853.2 | 856.7 | 860.1 | 863.4 | 866.5 | 869.6 | 872.5 | 875.4 | 878.2
283.15 K, x2 = 0.625 | 840.2 | 843.9 | 847.5 | 850.9 | 854.2 | 857.4 | 860.5 | 863.5 | 866.4 | 869.2
283.15 K, x2 = 0.75 | 829.2 | 832.9 | 836.5 | 840 | 843.4 | 846.6 | 849.7 | 852.8 | 855.7 | 858.6
283.15 K, x2 = 0.875 | 815.4 | 819.2 | 823 | 826.5 | 829.9 | 833.2 | 836.4 | 839.5 | 842.5 | 845.4
293.15 K, x2 = 0 | 866.8 | 870.5 | 874.1 | 877.5 | 880.8 | 884 | 887.1 | 890.1 | 893 | 895.9
293.15 K, x2 = 0.125 | 861 | 864.7 | 868.3 | 871.8 | 875.1 | 878.4 | 881.5 | 884.6 | 887.5 | 890.4
293.15 K, x2 = 0.25 | 854.9 | 858.6 | 862.3 | 865.8 | 869.2 | 872.5 | 875.6 | 878.7 | 881.7 | 884.5
293.15 K, x2 = 0.375 | 848.1 | 851.8 | 855.5 | 859.1 | 862.5 | 865.8 | 869 | 872.1 | 875.1 | 878
293.15 K, x2 = 0.5 | 840.3 | 844 | 847.8 | 851.4 | 854.8 | 858.1 | 861.4 | 864.5 | 867.5 | 870.4
293.15 K, x2 = 0.625 | 831.1 | 834.9 | 838.7 | 842.3 | 845.8 | 849.2 | 852.4 | 855.5 | 858.6 | 861.5
293.15 K, x2 = 0.75 | 820.2 | 824.1 | 827.9 | 831.6 | 835.1 | 838.5 | 841.8 | 845 | 848 | 851
293.15 K, x2 = 0.875 | 806.6 | 810.6 | 814.5 | 818.3 | 821.9 | 825.4 | 828.7 | 831.9 | 835 | 838
303.15 K, x2 = 0 | 857.5 | 861.4 | 865.2 | 868.8 | 872.3 | 875.7 | 879 | 882.1 | 885.2 | 888.1
303.15 K, x2 = 0.125 | 851.4 | 855.4 | 859.2 | 862.9 | 866.4 | 869.9 | 873.2 | 876.4 | 879.4 | 882.5
303.15 K, x2 = 0.25 | 845.3 | 849.3 | 853.2 | 856.9 | 860.5 | 863.9 | 867.3 | 870.4 | 873.6 | 876.6
303.15 K, x2 = 0.375 | 838.5 | 842.6 | 846.5 | 850.3 | 853.9 | 857.3 | 860.7 | 863.9 | 867.1 | 870.1
303.15 K, x2 = 0.5 | 830.8 | 834.8 | 838.8 | 842.6 | 846.2 | 849.7 | 853.1 | 856.4 | 859.5 | 862.6
303.15 K, x2 = 0.625 | 821.7 | 825.8 | 829.8 | 833.7 | 837.3 | 840.9 | 844.3 | 847.6 | 850.7 | 853.8
303.15 K, x2 = 0.75 | 810.9 | 815.1 | 819.2 | 823.1 | 826.8 | 830.4 | 833.8 | 837.1 | 840.3 | 843.4
303.15 K, x2 = 0.875 | 797.6 | 801.9 | 806.1 | 810 | 813.8 | 817.4 | 820.9 | 824.3 | 827.5 | 830.6
313.15 K, x2 = 0 | 848.1 | 852.2 | 856.2 | 860 | 863.7 | 867.3 | 870.7 | 874 | 877.2 | 880.3
313.15 K, x2 = 0.125 | 841.8 | 845.9 | 850 | 853.9 | 857.7 | 861.3 | 864.7 | 868.1 | 871.3 | 874.5
313.15 K, x2 = 0.25 | 835.6 | 839.8 | 844 | 847.9 | 851.7 | 855.3 | 858.8 | 862.2 | 865.4 | 868.6
313.15 K, x2 = 0.375 | 828.9 | 833.2 | 837.3 | 841.3 | 845.1 | 848.8 | 852.3 | 855.7 | 859 | 862.2
313.15 K, x2 = 0.5 | 821.2 | 825.5 | 829.7 | 833.7 | 837.5 | 841.2 | 844.8 | 848.2 | 851.5 | 854.7
313.15 K, x2 = 0.625 | 812.2 | 816.5 | 820.8 | 824.8 | 828.7 | 832.5 | 836 | 839.4 | 842.8 | –
313.15 K, x2 = 0.75 | 801.6 | 806 | 810.3 | 814.4 | 818.3 | 822.1 | 825.7 | 829.2 | 832.5 | –
313.15 K, x2 = 0.875 | 788.6 | 793.1 | 797.5 | 801.6 | 805.6 | 809.4 | 813.1 | 816.6 | 819.9 | –
